Experimental data as given in ChEMBL document CHEMBL5032511, “Improving Druggability of Novel Diarylpyrimidine NNRTIs by a Fragment-Based Replacement Strategy: From Biphenyl-DAPYs to Heteroaromatic-Biphenyl-DAPYs” (J Med Chem, 2021).

What was measured:
[1] = system: Human immunodeficiency virus 1; test: Antiviral activity against HIV1 IIIB infected human MT4 cells assessed as protection against virus-induced cytopathic effect by MTT assay; assay type: functional, organism-based; details: Human immunodeficiency virus 1, IIIB
[2] = Selectivity index, ratio of CC50 for mock infected human MT4 cells to IC50 for HIV1 IIIB infected human MT4 cells
[3] = system: Human immunodeficiency virus 1; test: Anti-viral activity against HIV1 harboring RT K103N mutant infected […] cells assessed as protection against virus-induced cytopathic effect by MTT assay; assay type: functional, organism-based; details: Human immunodeficiency virus 1, MT4
[4] = system: Human immunodeficiency virus 1; test: Anti-viral activity against HIV1 harboring RT L100I mutant infected […] cells assessed as protection against virus-induced cytopathic effect by MTT assay; assay type: functional, organism-based; details: Human immunodeficiency virus 1, MT4
[5] = target: Human immunodeficiency virus type 1 reverse transcriptase (Human immunodeficiency virus 1, UniProt Q72547); test: Inhibition of recombinant wild-type HIV1 p66/p51 reverse transcriptase assessed as inhibition of [3H][…] incorporation using poly (rA) as templates incubated for 40 mins by spectrofluorometer
[6] = system: Human immunodeficiency virus 1; test: Anti-viral activity against HIV1 harboring RT Y181C mutant infected […] cells assessed as protection against virus-induced cytopathic effect by MTT assay; assay type: functional, organism-based; details: Human immunodeficiency virus 1, MT4
[7] = Cytotoxicity against mock infected human MT4 cells by MTT assay
[8] = system: Human immunodeficiency virus 1; test: Anti-viral activity against HIV1 harboring RT Y188L mutant infected […] cells assessed as protection against virus-induced cytopathic effect by MTT assay; assay type: functional, organism-based; details: Human immunodeficiency virus 1, MT4
[9] = system: Human immunodeficiency virus 1; test: Anti-viral activity against HIV1 harboring RT E138K mutant infected […] cells assessed as protection against virus-induced cytopathic effect by MTT assay; assay type: functional, organism-based; details: Human immunodeficiency virus 1, MT4
[10] = Aqueous solubility of compound in PBS at pH 7 by HPLC-UV analysis; details: PBS
[11] = Aqueous solubility of compound in PBS at pH 7.4 by HPLC-UV analysis; details: PBS
[12] = Stability in human liver microsome assessed as binding constant at 1 uM in presence of NADPH by LC/MS/MS analysis; details: microsomes
in vitro [13] = details: rat, microsomes
in vitro [14] = details: rat, microsomes; remark: listed apart in the source
[15] = Oral bioavailability in Sprague-Dawley rat at 5 mg/kg by LCMS analysis; assay type: ADME, organism-based; details: in vivo
[16] = Stability in rat liver microsome assessed as binding constant at 1 uM in presence of NADPH by LC/MS/MS analysis; details: microsomes
[17] = Solubility of compound in PBS at pH 4.5 by HPLC-UV analysis; assay type: physicochemical

Structure (SMILES)	EC50 [1] [nM]	selectivity ratio [2]	EC50 [3] [nM]	EC50 [4] [nM]	IC50 [5] [nM]	EC50 [6] [nM]	CC50 [7] [nM]	EC50 [8] [nM]	EC50 [9] [nM]	other results
N#Cc1ccc(Nc2nccc(Nc3c(F)cc(-c4ccnc(Cl)c4)cc3F)n2)cc1	6.8	622	101	415	14	254	4200	> 1540	61	
Cl.N#Cc1ccc(Nc2nccc(Nc3c(F)cc(-c4ccc(C#N)cc4)cc3F)n2)cc1										solubility [10]: 5.6 µg/mL
N#Cc1ccc(Nc2nccc(Nc3c(F)cc(-c4ccnc(F)c4)cc3F)n2)cc1	3.8	1310	42	397	11	80	5000	1260	14.3	
Cc1cc(C#N)cc(C)c1Oc1nc(Nc2ccc(C#N)cc2)nc(N)c1Br [ETRAVIRINE]			3.4				> 4600	29.3		solubility [11]: < 1 µg/mL; solubility [10]: < 1 µg/mL
N#Cc1ccc(Nc2nccc(Nc3c(F)cc(-c4ccc(C#N)cc4)cc3F)n2)cc1	1						> 294000			K [12]: 0.0219 min⁻¹; half-life at 1 µM (in vitro [13]): 44.3 min; microsomal CLint at 1 µM (in vitro [14]): 15.7 µL/min/mg; bioavailability [15]: 44%; K [16]: 0.0157 min⁻¹
O=c1c2nc([N+](=O)[O-])cn2ccn1Cc1ccccc1										solubility ([17]; buffer): Insoluble
N#Cc1ccc(Nc2nccc(Nc3c(F)cc(-c4ccnc(C#N)c4F)cc3F)n2)cc1	2	> 143000	14	80	11	42	> 282000	18300	11	
O=c1c2nc([N+](=O)[O-])cn2ccn1Cc1cccnc1										solubility ([17]; PBS, read-out: solubility): > 200 µM
N#Cc1ccc(Nc2nccc(Nc3c(F)cc(-c4ccsc4)cc3F)n2)cc1	3.9	14000	171	301	11	212	55400	1040	14	
N#Cc1ccc(Nc2nccc(Nc3c(F)cc(-c4ccnc(F)c4F)cc3F)n2)cc1	2	> 147000	11.5	63	8.3	21.3	> 286000	1640	13.5	
